The text below walks through data of patent US20240238299A1, “USE OF PYRROLOPYRIMIDINE COMPOUND” (GUANGZHOU JOYO PHARMATECH CO., LTD, priority 2021, published 2024).

In one assay the test system is BV-2 cells. The assay is described as follows: CTG cell proliferation assay, LPS/IFN-γ-activated BV-2 cells. Type of assay: cell-based, Mouse. The method, then: Step 1: BV-2 cells in the exponential growth phase were collected, and viable cells were counted using a Vi-Cell XR cell counter. The cell suspension was adjusted to an appropriate concentration with the culture medium. 160 μL of cell suspension was added to each well of a 96-well cell culture plate, resulting in a final cell concentration of 12,000 cells per well. The culture plate was incubated for 24 hours in a 37° C., 5% CO2 incubator.
Step 2: A 10 mM DMSO compound stock solution was diluted at a ratio of 1:4 using DMSO to prepare a series of 1000× test compound solutions. These 1000× test compound solutions were further diluted at a ratio of 1:100 using cell culture medium to prepare a series of 10× test compound solutions. Finally, the 96-well plate that had been plated with cells the day before was taken out. According to the experimental well plate loading design, 20 μL of the corresponding 10× solution was added to each well, with three duplicate wells for each drug concentration. The final concentrations of the test compounds used in the experiment (i.e., 1× solutions) have a range of 10, 2.5, 0.625, 0.156, 0.0391, 0.0098, and 0.0024 μM. The final DMSO concentration in each well was 0.1%.
After the compound was added, the 96-well plate was incubated for half an hour in the 37° C., 5% CO2 incubator.
After the pre-incubation was completed, 20 μL of culture medium containing 100 ng/mL LPS and 100 ng/mL IFN-γ (final concentrations of 10 ng/mL LPS and 10 ng/mL IFN-7) was added to each well to induce the activation of BV-2 cells. The culture plate was then incubated for 24 hours in the 37° C., 5% CO2 incubator.
Step 3: After 24 hours of treatment with the compound, the culture plate was centrifuged at 1200 rpm for 5 minutes. The supernatant was pipetted into another plate, which was sealed with tinfoil and stored at −20° C. for future ELISA and Griess reagent system assays. The cell culture plate from which the supernatant had been removed was immediately used for cell proliferation assays using the CellTiter-Glo (CTG) method.
Step 4: In the cell culture plate from which the supernatant had been removed, 100 μL of PBS was added to each well. According to the instructions of the CellTiter-Glo (CTG) kit, 50 μL of pre-melted and room-temperature balanced CTG solution was added to each well. The plate was then mixed for 2 minutes using a microplate shaker. After letting it stand at room temperature for 10 minutes, the fluorescence signal value was measured using an Envision 2104 plate reader.
Step 1: Using the CTG fluorescence signal values, the percentage of surviving cells (surviving cells %) at each test concentration relative to the blank (DMSO) group was calculated. The formula was: surviving cells %=fluorescence value of the test concentration group/fluorescence value of the blank group.
Step 2: the percentage of surviving cells was plotted against the logarithm of the compound concentration. Nonlinear regression was used to fit the curve, and the formula “log(inhibitor) vs. response—Variable slope” in the software GraphPad Prism 5 was employed to calculate the IC50 value.
Step 3: The formula for calculating the inhibition rate was: inh. (%)={fluorescence value of the blank group−fluorescence value of the test concentration group}/fluorescence value of the blank (DMSO) group.

Assay [1] concerns IL-6 secretion by astrocytes. The assay can be described thus: IL-6 release caused by NMO-IgG in astrocytes (ELISA). Type of assay: cell-based, rat. To be noted: Rattus norvegicus, Astrocyte, 24 h, NMO-IgG 250 μg/mL, read-out: IL-6 inhibition rate, Mean. On the procedure:
The compound was dissolved in DMSO to prepare a compound stock solution. The compound stock solution was then serially diluted in a gradient using DMSO to prepare a series of 1000× test compound solutions. These 1000× test compound solutions were further diluted at a ratio of 1:100 with cell culture medium to prepare a series of 10× test compound solutions. Finally, according to the experimental well plate loading design, a corresponding volume of 10× solution was added to each well, with two duplicate wells for each drug concentration. In the experiment, the test solution (i.e., 1× solution) had varying final concentrations of compound I, specifically 20, 2.222, 0.247, and 0.027 μM; the concentration of Meprednisone compound (i.e., 1× solution) was 30 μM; the concentration of BAY 11-7082 (i.e., 1× solution) was 5 μM; the final DMSO concentration in each well was 0.1%. DMSO without compound was added to blank control wells, with a final concentration of 0.1%.
1) Extraction and separation of primary astrocytes: A mixed glial cell culture medium was prepared from the cerebral cortex of 1-day-old newborn rats. After euthanizing the newborn rats, they were immersed in alcohol. Their skin was cut, the brains were removed, and the cerebral cortex was isolated. The tissues were then ground to remove the connective tissue, and the mixed glial cells were sieved through a 70 µm cell strainer. These cells were then seeded into a cell culture plate coated with poly-L-lysine. The culture medium was DMEM, containing 10% heat-inactivated fetal bovine serum, 100 U/mL penicillin, and […]. After about 12 days of in vitro culture, the cells reached confluence. Microglia, endothelial cells, and oligodendrocytes were removed from the mixed glial cells by vibratory shaking. […] 2) Culture of astrocytes: The isolated astrocytes were cultured in a 37° C., 5% CO2 incubator. The culture medium was changed every 3 to 4 days. The astrocytes could also be digested using trypsin (0.25%) and then frozen in liquid nitrogen for future use.
Human NMO-IgG was isolated from a sterile-filtered serum pool (AQP4-IgG-positive NMOSD) using a HiTrap Protein G-HP column (GE Healthcare). The serum samples were diluted at a ratio of 1:1 with binding buffer, and after packing the purification column with binding buffer, the serum sample was added. The column was subsequently washed with binding buffer again and the antibodies were eluted according to the instructions. Finally, the antibodies were concentrated on an Amicon Ultra-4 centrifugal filter (millipore) with a 10,000 MW cutoff. The concentrated immunoglobulin was filtered through a 0.22 µm filter. The protein concentration of the concentrate was determined using the BCA method and stored at −80° C. The total IgG extracted from the serum of NMOSD patients was NMO-IgG (containing AQP4-IgG), and the cells were stimulated at a protein concentration of 250 μg/mL during the experiment.
Astrocytes were cultured or revived until day 2 and then seeded into a 24-well plate at a density of 1.5×10^5 cells per well. The test compounds, including compound I, Meprednisone, and BAY11-7082, were pre-incubated with the cells for 30 minutes at the concentrations previously described. Subsequently, in each group, the cells continued to be stimulated with NMO-IgG at a final working concentration of 250 μg/mL for 24 hours to induce astrocyte damage. Normal human Control-IgG (CON-IgG) stimulation at a final working concentration of 250 μg/mL was used as a negative control.
After 24 hours of NMO-IgG stimulation of cells, the supernatant was collected. IL-6 levels were detected using an enzyme-linked immunosorbent assay (ELISA) following the instructions of the IL-6 ELISA kit (R&D Systems, USA, #RD6000B). The absorbance (OD values) of the samples in each group was measured, and the concentration of IL-6 in each experimental group was calculated through standard curve fitting. […]

Take `CN(c1ncnc2[nH]ccc12)[C@@H]1CCc2cc(C#N)nn2C1` [Compound I]: the “inhibitory effect on cell proliferation” value in the assay with BV-2 cells (24 h co-incubation with BV-2, highest test concentration 10 μM) is listed as “no inhibitory effect on cell proliferation”. Besides, the “maximum rate of increase in cell numbers compared to blank (DMSO) well” value in the assay with BV-2 cells (BV-2, 24 h, concentration greater than 0.1 μM) is given as 46.39%. Also, in the assay with BV-2 cells (Mus musculus, BV-2, 24 h co-incubation, LPS/IFN-γ, highest concentration 10 μM, read-out: Maximum inhibition rate on BV-2 cell proliferation), the inhibition at up to 10 µM is -46.4%. Further, the inhibition at 0.027 µM in assay [1] (0.027 μM) was determined as 30.4%. In addition, the inhibition at 0.247 µM in assay [1] (0.247 μM) amounted to 54%. The inhibition at 2.222 µM in assay [1] (2.222 μM) turned out to be 94.3%. For the same compound, the inhibition at 20 µM in assay [1] (20 μM) was approximately 98.8%.
